Measurements published in patent publication US12172975B2, “1H-indazole carboxamides as receptor-interacting protein kinase 1 inhibitors (RIPK1)” (BRISTOL-MYERS SQUIBB COMPANY, priority 2018, dated 2024).
Structures can show the parent of a compound that is named as a salt. Where two headings read alike, the source gives them in different places.

Experiments:
[1] = system: MLKL phosphorylation in HT29-L23 human colorectal adenocarcinoma cells; assay: MLKL Phosphorylation High-Content Assay; assay type: cell-based; conditions: necroptosis induced with TNFα, SMAC mimetic and Z-VAD, 6 h, read-out: pMLKL (IC50)
Method in brief: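 HT29-L23 cells were induced to necroptosis with TNFα (35 ng/mL), SMAC mimetic (700 nM) and Z-VAD (140 nM) for 6 h at 37 °C. Phospho-MLKL (S358) immunofluorescence was imaged and quantified per cell; maximal inhibition set by Nec-1s (6.25 μM), and IC50/Ymax from 4-parameter logistic fit.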

[2] = biological target: His-GST-TVMV-hRIPK1 (1-324) (Homo sapiens (Human), UniProt Q13546); assay: RIPK1 HTRF Binding Assay; conditions: read-out: RIPK1 HTRF (IC50); FRET probe displacement, 1 h at rt
Sequence of His-GST-TVMV-hRIPK1 (1-324) (Q13546 1-324): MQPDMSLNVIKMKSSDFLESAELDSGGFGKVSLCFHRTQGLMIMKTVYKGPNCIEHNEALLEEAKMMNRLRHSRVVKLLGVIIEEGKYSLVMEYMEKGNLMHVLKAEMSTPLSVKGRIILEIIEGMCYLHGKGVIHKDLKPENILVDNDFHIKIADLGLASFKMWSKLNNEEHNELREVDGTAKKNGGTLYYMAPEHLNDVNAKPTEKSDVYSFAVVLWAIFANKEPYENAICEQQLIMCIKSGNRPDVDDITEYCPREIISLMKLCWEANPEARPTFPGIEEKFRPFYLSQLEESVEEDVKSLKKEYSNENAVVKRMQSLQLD

**Q.** `CNC(=O)c1n[nH]c2cc(-c3cnc(OC)c(C(=O)NCc4ncccc4OCC4CCC4)c3)ccc12` [Example 117, 6-[5-({[3-(cyclobutylmethoxy)-pyridin-2-yl]methyl}carbam-oyl)-6-methoxypyridin-3-yl]-N-methyl-1H-indazole-3-carboxamide, TFA] was tested. Which IC50 [1] did it give?
**A.** 11 nM

**Q.** What about the IC50 [2] of the same compound?
**A.** 2.6 nM

**Q.** How did the IC50 ([1]; Homo sapiens) turn out when `CNC(=O)c1n[nH]c2cc(-c3cnc(OC)c(C(=O)NC4CCCC(Oc5ccccc5)C4)c3)ccc12` (centres unmarked) [Example 118, 6-{6-methoxy-5-[(3-phenoxy-cyclohexyl)carbamoyl]pyridin-3-yl}-N-methyl-1H-indazole-3-carboxamide] was run?
**A.** 2.6 nM

**Q.** And the IC50 [2]?
**A.** 6.2 nM

**Q.** What does the source list for `CNC(=O)c1n[nH]c2cc(-c3cnc(OC)c(C(=O)NCc4cccc(OC(F)(F)F)c4F)c3)ccc12` [Example 119, 6-[5-({[2-fluoro-3-(trifluoro-methoxy)phenyl]methyl}-carbamoyl)-6-methoxy-pyridin-3-yl]-N-methyl-1H-indazole-3-carboxamide]?
**A.** IC50 ([1]; Homo sapiens): 110 nM; IC50 [2]: 33 nM

**Q.** How did the IC50 [1] turn out when `CNC(=O)c1n[nH]c2cc(-c3cnc(OC)c(C(=O)NC4CCCC(C(=O)N(C)C)C4)c3)ccc12` (centres unmarked) [Example 120, 6-(5-{[3-(dimethylcarbam-oyl)cyclohexyl]carbamoyl}-6-methoxypyridin-3-yl)-N-methyl-1H-indazole-3-carbox-amide] was run?
**A.** 100 nM

**Q.** And the IC50 [2]?
**A.** 11 nM

**Q.** What does the source list for `CCN(CC)C(=O)C1CCCC(NC(=O)c2cc(-c3ccc4c(C(=O)NC)n[nH]c4c3)cnc2OC)C1` (centres unmarked) [Example 121, 6-(5-{[3-(diethylcarbamoyl)-cyclohexyl]carbamoyl}-6-methoxypyridin-3-yl)-N-methyl-1H-indazole-3-carbox-amide]?
**A.** IC50 [1]: 7.5 nM; IC50 [2]: 6.1 nM

**Q.** What does the source list for `CCN(C)C(=O)C1CCCC(NC(=O)c2cc(-c3ccc4c(C(=O)NC)n[nH]c4c3)cnc2OC)C1` (centres unmarked) [Example 122, 6-[5-({3-[ethyl(methyl)carbam-oyl]cyclohexyl}carbamoyl)-6-methoxypyridin-3-yl]-N-methyl-1H-indazole-3-carboxamide]?
**A.** IC50 [1]: 120 nM; IC50 [2]: 12 nM

**Q.** `CCCN(CC1CC1)C(=O)C1CCCC(NC(=O)c2cc(-c3ccc4c(C(=O)NC)n[nH]c4c3)cnc2OC)C1` (centres unmarked) [Example 123, 6-[5-({3-[(cyclopropylmethyl)-(propyl)carbamoyl]cyclohexyl}-carbamoyl)-6-methoxypyridin-3-yl]-N-methyl-1H-indazole-3-carboxamide] was tested. Which IC50 ([1]; Homo sapiens) did it give?
**A.** 75 nM

**Q.** And the IC50 [2]?
**A.** 21 nM

**Q.** What does the source list for `CCN(CC1CCC1)C(=O)C1CCCC(NC(=O)c2cc(-c3ccc4c(C(=O)NC)n[nH]c4c3)cnc2OC)C1` (centres unmarked) [Example 124, 6-[5-({3-[(cyclobutylmethyl)-(ethyl)carbamoyl]cyclohexyl}-carbamoyl)-6-methoxypyridin-3-yl]-N-methyl-1H-indazole-3-carboxamide]?
**A.** IC50 ([1]; Homo sapiens): 83 nM; IC50 [2]: 26 nM

**Q.** What does the source list for `CNC(=O)c1n[nH]c2cc(-c3cnc(OC)c(C(=O)NC4CCCC(C(=O)N(C)C5CC5)C4)c3)ccc12` (centres unmarked) [Example 125, 6-[5-({3-[cyclopropyl(methyl)-carbamoyl]cyclohexyl}carbam-oyl)-6-methoxypyridin-3-yl]-N-methyl-1H-indazole-3-carbox-amide]?
**A.** IC50 [1]: 8.8 nM; IC50 [2]: 12 nM

**Q.** Which IC50 ([1]; Homo sapiens) does the source give for `CNC(=O)c1n[nH]c2cc(-c3cnc(OC)c(C(=O)NCc4cc(F)cc(F)c4OC(C)C)c3)ccc12` [Example 126, 6-[5-({[3,5-difluoro-2-(propan-2-yloxy)phenyl]methyl}-carbamoyl)-6-methoxypyridin-3-yl]-N-methyl-1H-indazole-3-carboxamide] here?
**A.** 6.9 nM

**Q.** And the IC50 [2]?
**A.** 4.2 nM

**Q.** Which results are given for `CNC(=O)c1n[nH]c2cc(-c3cnc(OC)c(C(=O)NCc4c(F)cccc4OC(C)C)c3)ccc12` [Example 127, 6-[5-({[2-fluoro-6-(propan-2-yloxy)phenyl]methyl}-carbamoyl)-6-methoxy-pyridin-3-yl]-N-methyl-1H-indazole-3-carboxamide]?
**A.** IC50 ([1]; Homo sapiens): 3.7 nM; IC50 [2]: 2.3 nM

**Q.** What does the source list for `CNC(=O)c1n[nH]c2cc(-c3cnc(OC)c(C(=O)NCc4cc(F)cc(F)c4OCC4CC4)c3)ccc12` [Example 128, 6-[5-({[2-(cyclopropylmeth-oxy)-3,5-difluorophenyl]-methyl}carbamoyl)-6-meth-oxypyridin-3-yl]-N-methyl-1H-indazole-3-carboxamide]?
**A.** IC50 ([1]; Homo sapiens): 3.1 nM; IC50 [2]: 2.3 nM

**Q.** What does the source list for `CNC(=O)c1n[nH]c2cc(-c3cnc(OC)c(C(=O)NCc4cc(F)ccc4OC(C)C)c3)ccc12` [Example 130, 6-[5-({[5-fluoro-2-(propan-2-yloxy)phenyl]methyl}carbam-oyl)-6-methoxy-pyridin-3-yl]-N-methyl-1H-indazole-3-carboxamide]?
**A.** IC50 [1]: 3.9 nM; IC50 [2]: 1.9 nM

**Q.** Which results are given for `CNC(=O)c1n[nH]c2cc(-c3cnc(OC)c(C(=O)NCc4ccccc4OC4CCC(C)C4)c3)ccc12` (centres unmarked) [Example 131, 6-{6-methoxy-5-[({2-[(3-methylcyclopentyl)oxy]-phenyl}methyl)carbamoyl]-pyridin-3-yl}-N-methyl-1H-indazole-3-carboxamide]?
**A.** IC50 ([1]; Homo sapiens): 2.3 nM; IC50 [2]: 10 nM

**Q.** How did the IC50 [1] turn out when `CNC(=O)c1n[nH]c2cc(-c3cnc(OC)c(C(=O)NC4CCCC(C(=O)N5CC(F)(F)C5)C4)c3)ccc12` (centres unmarked) [Example 132, 6-(5-{[3-(3,3-difluoroazet-idine-1-carbonyl)cyclohexyl]-carbamoyl}-6-methoxypyridin-3-yl)-N-methyl-1H-indazole-3-carboxamide, TFA] was run?
**A.** 140 nM

**Q.** What about the IC50 [2] of the same compound?
**A.** 35 nM

**Q.** How did the IC50 [1] turn out when `CNC(=O)c1n[nH]c2cc(-c3cnc(OC)c(C(=O)N4CCC[C@@H](Cc5ccc(F)cc5)C4)c3)ccc12` [Example 134, 6-{5-[(3S)-3-[(4-fluorophenyl)-methyl]piperidine-1-carbonyl]-6-methoxy-pyridin-3-yl}-N-methyl-1H-indazole-3-carbox-amide, TFA] was run?
**A.** 7.3 nM

**Q.** What about the IC50 [2] of the same compound?
**A.** 17 nM

**Q.** For `CNC(=O)c1n[nH]c2cc(-c3cnc(OC)c(C(=O)NCc4cc(OC(F)(F)F)ccc4F)c3)ccc12` [Example 137], which IC50 [1] is on record?
**A.** 2.9 nM

**Q.** And the IC50 [2]?
**A.** 1.6 nM

**Q.** Which results are given for `CNC(=O)c1n[nH]c2cc(-c3cnc(OC)c(C(=O)NCC4CCCCC4)c3)ccc12` [Example 138, 6-{5-[(cyclohexylmethyl)-carbamoyl]-6-methoxy-pyridin-3-yl}-N-methyl-1H-indazole-3-carboxamide]?
**A.** IC50 ([1]; Homo sapiens): 89 nM; IC50 [2]: 12 nM

**Q.** `CNC(=O)c1n[nH]c2cc(-c3cnc(OC)c(C(=O)NCC4(C(=O)OC5CCCC5)CC4)c3)ccc12` [Example 140, cyclopentyl 1-[({2-methoxy-5-[3-(methylcarbamoyl)-1H-indazol-6-yl]pyridin-3-yl}-formamido)methyl]cyclopro-pane-1-carboxylate] was tested. Which IC50 [1] did it give?
**A.** 18 nM

**Q.** And the IC50 [2]?
**A.** 6.9 nM

**Q.** Which results are given for `CNC(=O)c1n[nH]c2cc(-c3cnc(OC)c(C(=O)NCc4cc(C(F)(F)F)ccn4)c3)ccc12` [Example 143, 6-[6-methoxy-5-({[4-(trifluoro-methyl)pyridin-2-yl]methyl}-carbamoyl)pyridin-3-yl]-N-methyl-1H-indazole-3-carboxamide]?
**A.** IC50 ([1]; Homo sapiens): 26 nM; IC50 [2]: 28 nM

**Q.** Which results are given for `CNC(=O)c1n[nH]c2cc(-c3cnc(OC)c(C(=O)NCC[C@H](O)c4ccc(Cl)cc4)c3)cc(F)c12` [Example 145, 6-(5-{[(3S)-3-(4-chloro-phenyl)-3-hydroxypropyl]-carbamoyl}-6-methoxy-pyridin-3-yl)-4-fluoro-N-methyl-1H-indazole-3-carboxamide]?
**A.** IC50 ([1]; Homo sapiens): 200 nM; IC50 [2]: 9.6 nM

**Q.** How did the IC50 ([1]; Homo sapiens) turn out when `CNC(=O)c1n[nH]c2cc(-c3cnc(OC)c(C(=O)N[C@@H](C)CC(=O)OC(C)(C)C)c3)cc(F)c12` [Example 146, tert-butyl (3S)-3-({5-[4-fluoro-3-(methylcarbamoyl)-1H-indazol-6-yl]-2-methox-pyridin-3-yl}formamido)-butanoate] was run?
**A.** 400 nM

**Q.** And the IC50 [2]?
**A.** 69 nM

**Q.** With `[2H]C([2H])([2H])NC(=O)c1n[nH]c2cc(-c3cnc(OC)c(C(=O)NCC(C)(C)C(=O)OC4CCOCC4)c3)ccc12` [Example 148, oxan-4-yl 3-[(2-methoxy-5-{3-[(deutero)methylcarbamoyl]-1H-indazol-6-yl}pyridin-3-yl)formamido]-2,2-dimethyl-propanoate] as the compound, how does the IC50 ([1]; Homo sapiens) read?
**A.** 96 nM

**Q.** What about the IC50 [2] of the same compound?
**A.** 54 nM

**Q.** With `[2H]C([2H])([2H])NC(=O)c1n[nH]c2cc(-c3cnc(OC)c(C(=O)NCC(C)(C)C(=O)OC(C)(C)C)c3)ccc12` [Example 149, tert-butyl 3-[(2-methoxy-5-{3-[(deutero)methylcarbamoyl]-1H-indazol-6-yl}pyridin-3-yl)-formamido]-2,2-dimethyl-propanoate] as the compound, how does the IC50 ([1]; Homo sapiens) read?
**A.** 74 nM

**Q.** What about the IC50 [2] of the same compound?
**A.** 33 nM

**Q.** How did the IC50 ([1]; Homo sapiens) turn out when `[2H]C([2H])([2H])NC(=O)c1n[nH]c2cc(-c3cnc(OC)c(C(=O)NCCC(=O)OC(C)(C)C)c3)ccc12` [Example 150, tert-butyl 3-[(2-methoxy-5-{3-[(deutero)methylcarbamoyl]-1H-indazol-6-yl}pyridin-3-yl)-formamido]propanoate] was run?
**A.** 110 nM

**Q.** What about the IC50 [2] of the same compound?
**A.** 32 nM

**Q.** `[2H]C([2H])([2H])NC(=O)c1n[nH]c2cc(-c3cnc(OC)c(C(=O)NC(C)c4ccccc4OC(F)(F)F)c3)ccc12` (centres unmarked) [Example 152, 6-[6-methoxy-5-({1-[2-(tri-fluoromethoxy)phenyl]ethyl}-carbamoyl)pyridin-3-yl]-N-(deutero)methyl-1H-indazole-3-carboxamide] was tested. Which IC50 ([1]; Homo sapiens) did it give?
**A.** 3.3 nM

**Q.** What about the IC50 [2] of the same compound?
**A.** 20 nM

**Q.** Which results are given for `[2H]C([2H])([2H])NC(=O)c1n[nH]c2cc(-c3cnc(OC)c(C(=O)NCc4ccccc4OC(F)(F)F)c3)ccc12` [Example 153]?
**A.** IC50 ([1]; Homo sapiens): 6.3 nM; IC50 [2]: 2.9 nM

**Q.** With `CNC(=O)c1n[nH]c2cc(-c3cnc(C)c(C(=O)N[C@H]4CC[C@@H](c5ccccc5)C4)c3)ccc12` [Example 154, N-methyl-6-(6-methyl-5-{[(1S,3R)-3-phenylcyclopentyl]carbamoyl}-pyridin-3-yl)-1H-indazole-3-carbox-amide] as the compound, how does the IC50 [1] read?
**A.** 58 nM

**Q.** And the IC50 [2]?
**A.** 2.9 nM
